Assays:
[1] = test system: T. cruzi epimastigotes (intact, non-permeabilized); assay: Mitochondrial Ca2+ uptake in intact epimastigotes using Rhod-2 AM; format: cell-based, Trypanosoma cruzi
Description: Figure 4 Effect of Ru265 on Trypanosoma cruzi. (a) Effect of Ru265 on epimastigote growth. Growth of control epimastigotes in LIT medium in the presence of 1 μM, 5 μM, and 10 μM Ru265. (b) Effect of Ru265 on trypomastigote attachment. Trypomastigotes were pretreated for 30 min with 1 μM antimycin A (AA) or 10 μM Ru265 and added to glutaraldehyde-fixed Vero cells. After 1 h of incubation at 37 °C, the cells were washed, and the number of attached trypomastigotes was counted. […] (c) Effect of Ru265 on trypomastigotes infection. Trypomastigotes were pretreated for 30 min with 1 μM antimycin A or 10 μM Ru265 and added to Vero cells. After 4 h of incubation at 37 °C, the cells were washed, and the number of intracellular parasites was counted. […] (f) Routine respiration (initial oxygen flux values), leak respiration after the addition of 0.5 µg/mL of oligomycin A, and electron transfer system (ETS) capacity after the sequential additions of FCCP (0.2 μM each) were measured for each condition. […] (g) Representative experiment showing mitochondrial Ca^2+ uptake by intact epimastigotes in relative fluorescence units (RFU). […] (h) Changes in fluorescence (before and after ionomycin addition) from three experiments like that shown in panel (g). […]

T. cruzi epimastigotes = assay: Epimastigote growth in LIT medium; format: cell-based, Trypanosoma cruzi; details: 1 µM, 5 µM and 10 µM
Description: We analyzed the growth rate of epimastigotes in LIT medium at different Ru265 concentrations (1 µM, 5 µM, and 10 µM). […] The presence of metabolic inhibitors affects attachment and invasion of T. cruzi trypomastigotes to mammalian cells since these are an active process which depends on the expenditure of parasite energy. Preincubation of trypomastigotes for 30 min with antimycin A, which blocks electron transport from cytochrome b to c1, decreased the ability of trypomastigotes to attach to glutaraldehyde-fixed cells (Figure 4b) and invade intact host cells (Figure 4c).
Figure 4 Effect of Ru265 on Trypanosoma cruzi. (a) Effect of Ru265 on epimastigote growth. […] After 1 h of incubation at 37 °C, the cells were washed, and the number of attached trypomastigotes was counted. […] After 4 h of incubation at 37 °C, the cells were washed, and the number of intracellular parasites was counted. […] (f) Routine respiration (initial oxygen flux values), leak respiration after the addition of 0.5 µg/mL of oligomycin A, and electron transfer system (ETS) capacity after the sequential additions of FCCP (0.2 μM each) were measured for each condition. […] (g) Representative experiment showing mitochondrial Ca^2+ uptake by intact epimastigotes in relative fluorescence units (RFU). […] (h) Changes in fluorescence (before and after ionomycin addition) from three experiments like that shown in panel (g). […]

## N.N.N.N.N.N.N.N.[Cl][Ru+3].[N-]=[Ru][Cl] [Ru265]
[1]; 50 µM Ru265 for 30 min, nigericin + ionomycin, three experiments
  Amount of Ca2+ taken up by mitochondria of intact cells (Rhod-2 fluorescence): no significant difference
[1]; intact epimastigotes
  Permeability in trypanosomes (inferred from lack of effect on intact cells): low permeability
T. cruzi epimastigotes
  Toxicity to epimastigotes: nontoxic at the concentrations tested
T. cruzi epimastigotes; control epimastigotes
  Effect on growth rate of epimastigotes: does not affect the growth rate

From PMC7730205, “Different Sensitivity of Control and MICU1- and MICU2-Ablated Trypanosoma cruzi Mitochondrial Calcium Uniporter Complex to Ruthenium-Based Inhibitors” (International Journal of Molecular Sciences, 2020)
